Key:
S. aureus DSM 20231 [1] = test: Bliss interaction score (quartile over a dose matrix) (fitness difference); higher = more antagonism (negative = synergy)
Procedure, shortened: (§1)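 Fitness was OD595 at entry into stationary phase divided by the plate's robust no-drug mean and capped at 1; single-drug fitness was inferred from combination data. The Bliss score is observed minus expected (product) fitness, summarised by quartiles over technical, biological and donor/recipient replicates.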

S. aureus Newman [2] = test: as above
Procedure, shortened: as §1

S. pneumoniae D39V [3] = test: as above
Procedure, shortened: as §1

B. subtilis 168 [4] = test: as above
Procedure, shortened: as §1

S. aureus DSM 20231 [5] = test: fitness (endpoint OD595 vs no drug) (fraction); higher = more growth
Procedure, shortened: (§2)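 Fitness was measured as bacterial growth in 384-well plates inoculated at OD595 0.01 (30 µl, or 55 µl for S. pneumoniae). Media were TSB, LB Lennox or CY, at 37 °C. OD595 was read every 30 min for 14 h and background-subtracted against the first reading. Fitness is OD595 at the transition into stationary phase divided by the robust mean of no-drug control wells, capped at 1.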

S. aureus Newman [6] = test: as above
Procedure, shortened: as §2

B. subtilis 168 [7] = test: as above
Procedure, shortened: as §2

S. pneumoniae D39V [8] = test: as above
Procedure, shortened: as §2
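Throughout, for Bliss interaction score (quartile over a dose matrix): first quartile when negative (synergy) and third quartile when positive (antagonism).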

CC[C@H]1OC(=O)[C@H](C)[C@@H](O[C@H]2C[C@@](C)(OC)[C@@H](O)[C@H](C)O2)[C@H](C)[C@@H](O[C@@H]2O[C@H](C)C[C@H](N(C)C)[C@H]2O)[C@](C)(O)C[C@@H](C)CN(C)[C@H](C)[C@@H](O)[C@]1(C)O [Azithromycin] + CCN(CC)CCOC(=O)c1ccc(N)cc1 [Procaine]
Conditions	Bliss interaction score
B. subtilis 168 [4]	-0.0562
S. aureus DSM 20231 [1]	-0.0967
S. aureus Newman [2]	-0.0635
S. pneumoniae D39V [3]	0.0533

fitness
Conditions	partner 85.5 µg/mL	partner 171 µg/mL	partner 342 µg/mL
B. subtilis 168 [7], first compound 0.25 µg/mL	0.867	0.9	0.861
B. subtilis 168 [7], first compound 0.5 µg/mL	0.777	0.778	0.787
S. aureus DSM 20231 [5], first compound 0.125 µg/mL	–	0.905	0.912
S. aureus DSM 20231 [5], first compound 0.5 µg/mL	0.441	–	0.426
S. aureus Newman [6], first compound 0.125 µg/mL	0.871	0.864	0.843
S. aureus Newman [6], first compound 0.25 µg/mL	0.803	0.877	0.779
S. aureus Newman [6], first compound 0.5 µg/mL	0.408	–	0.401

CN(N=O)C(=O)N[C@@H](C=O)[C@@H](O)[C@H](O)[C@H](O)CO [Streptozotocin] + CN[C@H](CC(C)C)C(=O)N[C@H]1C(=O)N[C@@H](CC(N)=O)C(=O)N[C@H]2C(=O)N[C@H]3C(=O)N[C@H](C(=O)N[C@H](C(=O)O)c4cc(O)cc(O)c4-c4cc3ccc4O)[C@H](O)c3ccc(c(Cl)c3)Oc3cc2cc(c3O[C@@H]2O[C@H](CO)[C@@H](O)[C@H](O)[C@H]2O[C@H]2C[C@](C)(N)[C@H](O)[C@H](C)O2)Oc2ccc(cc2Cl)[C@H]1O [Vancomycin]
Conditions	Bliss interaction score
B. subtilis 168 [4]	-0.0175
S. aureus DSM 20231 [1]	0.0534
S. aureus Newman [2]	-0.0371
S. pneumoniae D39V [3]	0.0398

fitness
Conditions	first compound 0.15 µg/mL	first compound 0.3 µg/mL	first compound 0.6 µg/mL	first compound 1.2 µg/mL	first compound 2.4 µg/mL	first compound 4.8 µg/mL
S. aureus DSM 20231 [5], partner 0.1875 µg/mL	0.861	0.757	0.716	–	–	–
S. aureus DSM 20231 [5], partner 0.375 µg/mL	0.912	0.845	0.767	–	–	–
S. aureus DSM 20231 [5], partner 0.75 µg/mL	0.946	0.895	0.839	–	–	–
S. aureus Newman [6], partner 0.1875 µg/mL	0.861	0.792	0.585	–	–	–
S. aureus Newman [6], partner 0.375 µg/mL	0.82	0.758	0.515	–	–	–
S. aureus Newman [6], partner 0.75 µg/mL	0.885	0.763	0.539	–	–	–
S. pneumoniae D39V [8], partner 0.03125 µg/mL	–	–	–	0.998	0.99	0.999
S. pneumoniae D39V [8], partner 0.0625 µg/mL	–	–	–	0.911	0.881	0.932
S. pneumoniae D39V [8], partner 0.125 µg/mL	–	–	–	0.746	0.757	0.794

fitness, S. pneumoniae D39V [8], one replicate
Conditions	first compound 1.2 µg/mL	first compound 2.4 µg/mL	first compound 4.8 µg/mL
partner 0.25 µg/mL	0.655	0.639	0.536
partner 0.5 µg/mL	0.327	0.333	0.424

Cc1cc(NS(=O)(=O)c2ccc(N)cc2)no1 [Sulfamethoxazol] + CN[C@H](CC(C)C)C(=O)N[C@H]1C(=O)N[C@@H](CC(N)=O)C(=O)N[C@H]2C(=O)N[C@H]3C(=O)N[C@H](C(=O)N[C@H](C(=O)O)c4cc(O)cc(O)c4-c4cc3ccc4O)[C@H](O)c3ccc(c(Cl)c3)Oc3cc2cc(c3O[C@@H]2O[C@H](CO)[C@@H](O)[C@H](O)[C@H]2O[C@H]2C[C@](C)(N)[C@H](O)[C@H](C)O2)Oc2ccc(cc2Cl)[C@H]1O [Vancomycin]
Conditions	Bliss interaction score
B. subtilis 168 [4]	-0.0423
S. aureus DSM 20231 [1]	0.0457
S. aureus Newman [2]	0.0422
S. pneumoniae D39V [3]	0.0444

fitness
Conditions	first compound 1 µg/mL	first compound 2 µg/mL	first compound 4 µg/mL
S. aureus DSM 20231 [5], partner 0.1875 µg/mL	0.929	0.932	0.94
S. aureus DSM 20231 [5], partner 0.375 µg/mL	≥ 1	≥ 1	0.962
S. aureus DSM 20231 [5], partner 0.75 µg/mL	1	0.983	0.998
S. aureus Newman [6], partner 0.1875 µg/mL	0.991	0.988	≥ 1
S. aureus Newman [6], partner 0.375 µg/mL	0.993	0.968	≥ 1
S. aureus Newman [6], partner 0.75 µg/mL	0.977	0.953	≥ 1
S. pneumoniae D39V [8], partner 0.03125 µg/mL	0.964	0.961	0.97
S. pneumoniae D39V [8], partner 0.0625 µg/mL	0.909	0.899	0.961
S. pneumoniae D39V [8], partner 0.125 µg/mL	0.925	0.94	0.952

one replicate
Conditions	fitness
S. aureus Newman [6], first compound 8 µg/mL, partner 0.1875 µg/mL	0.87
S. aureus Newman [6], first compound 8 µg/mL, partner 0.375 µg/mL	0.896
S. aureus Newman [6], first compound 8 µg/mL, partner 0.75 µg/mL	0.915
S. pneumoniae D39V [8], first compound 1 µg/mL, partner 0.25 µg/mL	0.262
S. pneumoniae D39V [8], first compound 1 µg/mL, partner 0.5 µg/mL	0.0171
S. pneumoniae D39V [8], first compound 2 µg/mL, partner 0.25 µg/mL	0.258
S. pneumoniae D39V [8], first compound 2 µg/mL, partner 0.5 µg/mL	0.0591
S. pneumoniae D39V [8], first compound 4 µg/mL, partner 0.25 µg/mL	0.772
S. pneumoniae D39V [8], first compound 4 µg/mL, partner 0.5 µg/mL	0.496

Source: the supplement of paper PMC10627819
